Assay [1] concerns the target T1, human SLC6A19 and TMEM27 (Homo sapiens, UniProt Q695T7).
T1 construct: expressed in transfected cells
T1 sequence (Q695T7 1-634): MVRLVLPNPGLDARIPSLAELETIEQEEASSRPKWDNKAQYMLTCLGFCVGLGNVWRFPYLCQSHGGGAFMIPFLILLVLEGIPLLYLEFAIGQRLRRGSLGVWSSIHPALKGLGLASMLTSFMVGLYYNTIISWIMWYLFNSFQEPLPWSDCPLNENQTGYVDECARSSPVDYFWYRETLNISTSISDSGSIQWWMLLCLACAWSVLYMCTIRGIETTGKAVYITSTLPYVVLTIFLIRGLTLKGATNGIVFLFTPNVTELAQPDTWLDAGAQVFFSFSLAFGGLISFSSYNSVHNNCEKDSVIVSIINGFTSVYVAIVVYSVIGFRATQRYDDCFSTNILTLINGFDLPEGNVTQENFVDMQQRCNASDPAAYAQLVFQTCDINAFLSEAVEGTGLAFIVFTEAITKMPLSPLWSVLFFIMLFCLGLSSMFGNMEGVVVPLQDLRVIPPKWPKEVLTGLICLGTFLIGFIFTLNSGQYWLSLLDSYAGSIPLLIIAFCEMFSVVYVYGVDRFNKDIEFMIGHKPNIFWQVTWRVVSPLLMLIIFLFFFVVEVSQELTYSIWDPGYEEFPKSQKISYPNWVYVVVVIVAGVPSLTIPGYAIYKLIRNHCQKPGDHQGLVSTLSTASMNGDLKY
T1 sequence (Q9HBJ8 15-222 partner): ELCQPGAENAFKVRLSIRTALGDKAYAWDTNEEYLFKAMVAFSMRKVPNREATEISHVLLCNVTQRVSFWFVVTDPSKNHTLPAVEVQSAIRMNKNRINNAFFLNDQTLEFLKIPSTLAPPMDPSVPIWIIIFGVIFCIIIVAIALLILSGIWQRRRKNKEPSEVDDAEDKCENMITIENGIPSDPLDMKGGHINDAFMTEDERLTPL
Description: 13C6,15N-isoleucine uptake in CHO cells with doxycycline-inducible expression of human SLC6A19 and TMEM27, RapidFire mass spectrometry (Example B-2). It is filed as cell-based. The following applies: read-out: SLC6A19_RapidFire Uptake Assay IC50. The method in brief:
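Read-out is RapidFire mass-spec peak area of 13C6,15N-isoleucine taken up over 20 min at 37 °C, after 20 min compound pre-exposure in pH 7.2 HEPES-buffered saline. Cells: doxycycline-induced CHO co-expressing human SLC6A19 and TMEM27; compounds as duplicate 10-point 2-fold dilutions, positive control setting 0% activity.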

For assay [2], the target named is T1, human SLC6A19 and TMEM27. The assay is described as follows: Radiolabelled (3H) leucine uptake in CHO cells with doxycycline-inducible expression of human SLC6A19 and TMEM27 (Example B-1). It is filed as cell-based. To be noted: CHO cells with doxycycline-inducible expression of human SLC6A19 and TMEM27, read-out: SLC6A19_Radioligand Uptake Assay IC50. The method in brief: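 CHO cells were induced with doxycycline for 18 h at 37 °C, washed in HBSS, then exposed to compounds for 1 h: 8-point, 3-fold dilutions in duplicate, 0.5% DMSO final. Uptake measured by scintillation counting after 2 h shaking. Activity normalized with positive control as 0% and DMSO as 100%.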

For `CC1(C(=O)NCc2cc3cc(F)c(OCc4ccon4)cc3[nH]2)CC1` [Compound 6, N-((5-fluoro-6-(isoxazol-3-ylmethoxy)-1H-indol-2-yl)methyl)-1-methylcyclopropane-1-carboxamide], the 50% inhibitory concentration (IC50) in assay [1] was 148 nM; in assay [2], 175 nM.

For `CC1(C(=O)NCc2cc3cc(F)c(OCc4cscn4)cc3[nH]2)CC1` [Compound 8, N-((5-fluoro-6-(thiazol-4-ylmethoxy)-1H-indol-2-yl)methyl)-1-methylcyclopropane-1-carboxamide], the 50% inhibitory concentration (IC50) in assay [1] amounted to 51 nM; in assay [2], 119 nM.

In the case of `Cc1cc2cc(CNC(=O)C3(C)CC3)[nH]c2cc1OCc1cscn1` [Compound 11, 1-methyl-N-((5-methyl-6-(thiazol-4-ylmethoxy)-1H-indol-2-yl)methyl)cyclopropane-1-carboxamide], the figures for the IC50 in assay [1] and in assay [2] were 76 nM and 118 nM, respectively.

Regarding `Cc1cc(COc2cc3[nH]c(CNC(=O)C4(C)CC4)cc3cc2F)on1` [Compound 12, N-((5-fluoro-6-((3-methylisoxazol-5-yl)methoxy)-1H-indol-2-yl)methyl)-1-methylcyclopropane-1-carboxamide], the figures for the IC50 in assay [1] and in assay [2] were 144 nM and 79 nM, respectively.

Turning to `Cc1ncc(COc2cc3[nH]c(CNC(=O)C4(C)CC4)cc3cc2F)s1` [Compound 13, N-((5-fluoro-6-((2-methylthiazol-5-yl)methoxy)-1H-indol-2-yl)methyl)-1-methylcyclopropane-1-carboxamide], the concentration for half-maximal inhibition (IC50) is 764 nM in assay [1] and 637 nM in assay [2].

For the compound `Cc1cc(COc2cc3[nH]c(CNC(=O)C4(C)CC4)cc3cc2C)no1` [Compound 14, 1-methyl-N-((5-methyl-6-((5-methylisoxazol-3-yl)methoxy)-1H-indol-2-yl)methyl)cyclopropane-1-carboxamide], the figures for the IC50 in assay [1] and in assay [2] were 120 nM and 111 nM, respectively.

For `CC1(C(=O)NCc2cc3cc(Cl)c(OCc4cscn4)c(F)c3[nH]2)CC1` [Compound 18, N-((5-chloro-7-fluoro-6-(thiazol-4-ylmethoxy)-1H-indol-2-yl)methyl)-1-methylcyclopropane-1-carboxamide], the results for the IC50 in assay [1] and in assay [2] were 91 nM and 78 nM, respectively.

Turning to `Cc1cncc(COc2cc3[nH]c(CNC(=O)C4(C)CC4)cc3cc2Cl)c1` [Compound 23, N-((5-chloro-6-((5-methylpyridin-3-yl)methoxy)-1H-indol-2-yl)methyl)-1-methylcyclopropane-1-carboxamide], the IC50 in assay [1] was 502 nM; in assay [2], 1430 nM.

Consider `Cc1csc(COc2cc3[nH]c(CNC(=O)C4(C)CC4)cc3cc2Cl)n1` [Compound 24, N-((5-chloro-6-((4-methylthiazol-2-yl)methoxy)-1H-indol-2-yl)methyl)-1-methylcyclopropane-1-carboxamide], for which the IC50 in assay [1] was 222 nM; in assay [2], 412 nM.

Regarding `CC1(C(=O)NCc2cc3cc(Cl)c(OCc4ccsc4)cc3[nH]2)CC1` [Compound 25, N-((5-chloro-6-(thiophen-3-ylmethoxy)-1H-indol-2-yl)methyl)-1-methylcyclopropane-1-carboxamide], the IC50 in assay [1] came out at 33 nM; in assay [2], 124 nM.

With `CC1(C(=O)NCc2cc3cc(Cl)c(OCc4ncccc4F)cc3[nH]2)CC1` [Compound 26, N-((5-chloro-6-((3-fluoropyridin-2-yl)methoxy)-1H-indol-2-yl)methyl)-1-methylcyclopropane-1-carboxamide], the half-inhibitory concentration (IC50) in assay [1] was 166 nM; in assay [2], 149 nM.

On to `CC1(C(=O)NCc2cc3c(F)cc(OCc4ccon4)cc3[nH]2)CC1` [Compound 27, N-((4-fluoro-6-(isoxazol-3-ylmethoxy)-1H-indol-2-yl)methyl)-1-methylcyclopropane-1-carboxamide], for which the results for the IC50 in assay [1] and in assay [2] were 92 nM and 84 nM, respectively.

For `CC1(C(=O)NCc2cc3cc(Cl)c(OCc4ccc(F)cn4)cc3[nH]2)CC1` [Compound 28, N-((5-chloro-6-((5-fluoropyridin-2-yl)methoxy)-1H-indol-2-yl)methyl)-1-methylcyclopropane-1-carboxamide], the figures for the 50% inhibitory concentration (IC50) in assay [1] and in assay [2] were 79 nM and 170 nM, respectively.

Regarding `CC1(C(=O)NCc2cc3c(F)cc(OCc4cscn4)cc3[nH]2)CC1` [Compound 29, N-((4-fluoro-6-(thiazol-4-ylmethoxy)-1H-indol-2-yl)methyl)-1-methylcyclopropane-1-carboxamide], the IC50 in assay [1] is 45 nM; in assay [2], 60 nM.

Consider `CC1(C(=O)NCc2cc3cc(Cl)c(OCc4cccnc4F)cc3[nH]2)CC1` [Compound 30, N-((5-chloro-6-((2-fluoropyridin-3-yl)methoxy)-1H-indol-2-yl)methyl)-1-methylcyclopropane-1-carboxamide], for which the IC50 was 155 nM in assay [1] and 263 nM in assay [2].

`CC1(C(=O)NCc2cc3cc(Cl)c(OCc4ccc(F)nc4)cc3[nH]2)CC1` [Compound 31, N-((5-chloro-6-((6-fluoropyridin-3-yl)methoxy)-1H-indol-2-yl)methyl)-1-methylcyclopropane-1-carboxamide]: the values for the IC50 in assay [1] and in assay [2] were 504 nM and 419 nM, respectively.

Regarding `CC1(C(=O)NCc2cc3cc(Cl)c(OCc4cccc(F)n4)cc3[nH]2)CC1` [Compound 32, N-((5-chloro-6-((6-fluoropyridin-2-yl)methoxy)-1H-indol-2-yl)methyl)-1-methylcyclopropane-1-carboxamide], the IC50 in assay [1] was found to be 58 nM; in assay [2], 133 nM.

On to `CC1(C(=O)NCc2cc3ccc(OCc4cccc(F)n4)cc3[nH]2)CC1` [Compound 33, N-((6-((6-fluoropyridin-2-yl)methoxy)-1H-indol-2-yl)methyl)-1-methylcyclopropane-1-carboxamide], for which the IC50 came to 221 nM in assay [1] and 172 nM in assay [2].

Regarding `CC1(C(=O)NCc2cc3ccc(OCc4ccc(F)nc4)cc3[nH]2)CC1` [Compound 34, N-((6-((6-fluoropyridin-3-yl)methoxy)-1H-indol-2-yl)methyl)-1-methylcyclopropane-1-carboxamide], the figures for the concentration for half-maximal inhibition (IC50) in assay [1] and in assay [2] were 615 nM and 602 nM, respectively.

As to `CC1(C(=O)NCc2cc3cc(Cl)c(OCc4cncc(F)c4)cc3[nH]2)CC1` [Compound 36, N-((5-chloro-6-((5-fluoropyridin-3-yl)methoxy)-1H-indol-2-yl)methyl)-1-methylcyclopropane-1-carboxamide], the IC50 in assay [1] is 316 nM; in assay [2], 716 nM.

Turning to `CC1(C(=O)NCc2cc3cc(Cl)c(OCc4ccccn4)cc3[nH]2)CC1` [Compound 41, N-((5-chloro-6-(pyridin-2-ylmethoxy)-1H-indol-2-yl)methyl)-1-methylcyclopropane-1-carboxamide], the 50% inhibitory concentration (IC50) is 71 nM in assay [1] and 261 nM in assay [2].

Take `Cc1cc(COc2ccc3cc(CNC(=O)C4(C)CC4)[nH]c3c2)on1` [Compound 181, 1-methyl-N-((6-((3-methylisoxazol-5-yl)methoxy)-1H-indol-2-yl)methyl)cyclopropane-1-carboxamide]: in assay [1], the IC50 amounted to 183 nM.

Take `Cc1nc(COc2cc3[nH]c(CNC(=O)C4(C)CC4)cc3cc2Cl)co1` [Compound 182, N-((5-chloro-6-((2-methyloxazol-4-yl)methoxy)-1H-indol-2-yl)methyl)-1-methylcyclopropane-1-carboxamide]: in assay [1], the half-maximal inhibitory concentration (IC50) worked out at 91 nM.

With `CC1(C(=O)NCc2cc3cc(Cl)c(OCc4cnsn4)cc3[nH]2)CC1` [Compound 183, N-((6-((1,2,5-thiadiazol-3-yl)methoxy)-5-chloro-1H-indol-2-yl)methyl)-1-methylcyclopropane-1-carboxamide], the 50% inhibitory concentration (IC50) in assay [1] worked out at 39 nM.

Turning to `CC1(C(=O)NCc2cc3ccc(OCC4CCCC4)cc3[nH]2)CC1` [Compound 187, N-((6-(cyclopentylmethoxy)-1H-indol-2-yl)methyl)-1-methylcyclopropane-1-carboxamide], the IC50 in assay [1] came to 178 nM.

`CC1(C(=O)NCc2cc3ccc(OCC4CCOC4)cc3[nH]2)CC1` (stereo not drawn) [Compound 188, 1-methyl-N-((6-((tetrahydrofuran-3-yl)methoxy)-1H-indol-2-yl)methyl)cyclopropane-1-carboxamide]: the IC50 in assay [1] is 4450 nM.

Consider `CNC(=O)NCc1cc2ccc(OCc3cscn3)cc2[nH]1` [Compound 217, 1-methyl-3-((6-(thiazol-4-ylmethoxy)-1H-indol-2-yl)methyl)urea], for which the IC50 in assay [1] is 3420 nM.

The IC50 is the concentration that inhibits the measured activity by half.
